Measurements: US20120245201A1, “Isopropylphenidate for Treatment of Attention-Deficit/Hyperactivity Disorder and Fatigue-Related Disorders and Conditions” (priority 2009, published 2012)

Assays:
[1] = test system: male rats of the Sprague-Dawley strain; assay: Locomotor activity measurement in rats; format: in vivo, rat
Description: FIGS. 4A-B—Locomotor activity of SD rats after i.p. injection of IPH (10 mg/kg) and saline. The time course of locomotor response over a 120 min period following i.p. administration of IPH (10 mg/kg) versus saline is shown in FIG. 4A. As expected, IPH produced robust effects on locomotor activity in rats compared to saline injections at every 10 min period recorded post-dosing with a mean of nearly 1200 counts recorded during the initial 10 min measurement. Shown in FIG. 4B are the cumulative locomotor activity counts over the entire 120 min study period.
Chemical compounds. dl-threo-methylphenidate (MPH) was purchased from Sigma-Aldrich (St. Louis, Mo.). dl-isopropylphenidate (IPH) was also synthesized in the inventors' laboratory using the following method. In brief, (±)-ritalinic acid (2 mmol) was dissolved in isopropyl alcohol saturated with HCl gas (75 ml) and refluxed for 24 h under nitrogen. […] All compounds studied were assessed as their HCl salts. […]
Locomotor Activity Measurement in Rats. Locomotor-inducing activity of IPH was measured according to methods previously described by Patrick and associates during their establishment the differential pharmacology of the enantiomers of MPH (Patrick et al., 1987) as well as hydroxylated metabolites of MPH (Patrick et al., 1981). […] In brief, following an initial 60 min habituation period to the activity chamber, racemic IPH (or saline) was administered intraperitonealy (i.p.) to each animal (n=5 per active drug group; n=3 per saline group) at a dose of 10 mg/kg to correspond with 10 mg of racemic MPH (delivering 5 mg of d-MPH) which was previously determined to produce maximal behavioral responses (Patrick et al., 1987). […] Locomotor activity was recorded within doughnut-shaped cages with six photocell sensors equally spaced around a 9 cm runway. Activity counts as assessed by light-beam interruptions were recorded for each animal in increments of 10 minutes over a 2 hr period. Differences in the cumulative motor activity accounts were assessed by the unpaired, two-tailed Student t-test. […]

[2] = molecular target: T1, [3H]-(±)-MPH binding to rat brain striatal synaptosomes (Rattus norvegicus, UniProt P23977); settings: mg/mg comparison; cited from earlier work
T1 construct: host or cells: rat brain striatal synaptosomes

Sprague-Dawley rats = settings: intracerebroventricular; cited from earlier work
[3] = immediate-release tablet; cited from earlier work

T1 sequence (P23977 whole entry): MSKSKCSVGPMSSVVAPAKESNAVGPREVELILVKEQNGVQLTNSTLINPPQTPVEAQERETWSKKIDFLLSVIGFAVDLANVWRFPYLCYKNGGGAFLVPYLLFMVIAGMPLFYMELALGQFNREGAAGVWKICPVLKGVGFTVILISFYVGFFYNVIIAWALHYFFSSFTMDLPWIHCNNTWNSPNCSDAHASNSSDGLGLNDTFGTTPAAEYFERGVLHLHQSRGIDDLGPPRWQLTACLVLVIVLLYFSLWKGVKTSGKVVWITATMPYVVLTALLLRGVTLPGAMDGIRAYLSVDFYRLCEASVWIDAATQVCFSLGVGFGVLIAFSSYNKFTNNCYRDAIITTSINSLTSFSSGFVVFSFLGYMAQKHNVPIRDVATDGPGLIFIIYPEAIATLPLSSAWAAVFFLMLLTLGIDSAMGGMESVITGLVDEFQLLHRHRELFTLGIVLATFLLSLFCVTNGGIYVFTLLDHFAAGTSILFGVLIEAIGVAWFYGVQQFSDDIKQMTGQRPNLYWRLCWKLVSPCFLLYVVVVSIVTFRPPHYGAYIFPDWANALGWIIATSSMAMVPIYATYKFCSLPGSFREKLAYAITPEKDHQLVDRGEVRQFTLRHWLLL

Compound	mean locomotor activity counts during the initial 10 min measurement ([1]; 10 mg/kg i.p., SD rats) [counts]	cumulative locomotor activity counts over 120 min versus saline ([1]; 10 mg/kg i.p., SD rats, p<0.01)	locomotor responses compared with d-MPH 5 mg/kg of the earlier study (Patrick et al., 1987) ([1]; racemic IPH 10 mg/kg i.p., identical experimental conditions)	activity relative to MPH in inhibition of [3H]-(±)-MPH binding [2]	duration of locomotor activity (Sprague-Dawley rats) [min]	plasma half-life [3] [h]
CC(C)OC(=O)C(c1ccccc1)C1CCCCN1 (racemic) [IPH, dl-threo-α-phenyl-2-piperidineacetic acid isopropyl ester]	~1200	significantly elevated	more potent and sustained locomotor responses	approximately one third		
COC(=O)C(c1ccccc1)C1CCCCN1 (racemic) [MPH, dl-threo-methylphenidate, reference compound]					60	2 to 3
